These results are taken from PMC6472001, “Phenolic Compounds from Humulus lupulus as Natural Antimicrobial Products: New Weapons in the Fight against Methicillin Resistant Staphylococcus aureus, Leishmania mexicana and Trypanosoma brucei Strains” (Molecules, 2019).

Where two headings read alike, the source gives them in different places. Some results are limits rather than exact numbers.

The subject of one assay is S. aureus T26A4 (MSSA). Put plainly: Broth microdilution MIC. Conditions: for MIC: S. aureus T26A4 (MSSA). In kind it is cell-based, Staphylococcus aureus. The procedure: (§1) The protocol employed was inspired by Abedini et al. with some modifications. Products were solubilized in DMSO and serially diluted two-fold in MH medium. A bacterial suspension at 10^5 CFU/mL was added to obtain a final volume of 200 µL. Final phenolic product concentrations in wells ranged from 625 to 2.4 µg/mL (exception for lupulone for which dilutions were continued until 0.3 µg/mL). […] Plates were incubated overnight with stirring (60 rpm) at 37 °C.
(Dilution methods test growth across graded concentrations, often in twofold steps.)

The subject of the next assay is S. aureus T25.10 (MRSA). Description: Broth microdilution MIC. In kind it is cell-based, Staphylococcus aureus. The settings on record: for MIC: S. aureus T25.10 (MRSA). The protocol: as §1
The next assay concerns S. aureus 08143 (MSSA). Put plainly: Broth microdilution MIC. In kind it is cell-based, Staphylococcus aureus. Conditions: for MIC: S. aureus 08143 (MSSA). The procedure: as §1
The subject of assay [1] is S. aureus T28.1 (MRSA). Put plainly: Synergies by checkerboard method. In kind it is cell-based, Staphylococcus aureus. The procedure:
Checkerboard method was used to assess the potential co-action of xanthohumol, desmethylxanthohumol and lupulone between them or with some antibiotics. Antibiotics were previously selected on the basis of a first screening using E-tests (BioMérieux®, France). […] Each test was performed on a 96-well microplate using an 8-by-8 well configuration. […] Wells were filled with 100 µL of MH medium, 10 µL of each compound (DMSO for products and water for antibiotics) and 80 µL of a 10^5 CFU/mL bacterial suspension with appropriate solvent controls. […] The MIC of each product alone was checked at each test. Microplates were incubated overnight at 60 rpm and 37 °C.
After visual analysis, the combination with the highest activity was determined by the calculation of the fractional inhibitory concentration (FIC) index, interpreted as synergistic (FIC < 0.5), additive (0.5 ≤ FIC ≤ 1), indifferent (1 < FIC ≤ 4) or antagonist (FIC > 4).
FIC index=MIC A with B/MIC A alone+ MIC B with A/MIC B alone

The test system of assay [2] is S. aureus T28.1 (MRSA). Description: Broth microdilution MIC. In kind it is cell-based, Staphylococcus aureus. The procedure: as §1
For the following experiments, the MRSA strain T28.1, isolated from a pathological sample of osteitis, was used. It was previously characterized by DNA biochips, which allowed highlighting some β-lactamases and the SCC-mec genes confirming the methicillin resistance. Moreover, genes for enzymes and proteins involved in the capsule biosynthesis (capH5, capJ5 and capK5) and several intracellular adhesion proteins implicated in biofilm formation (icaA, icaC and icaD) were present.

Assay [3] has as its system Trypanosoma brucei brucei (Tbb). Description: Antiparasitic activity, broth microdilution. In kind it is cell-based. The procedure: (§2) Tbb were cultivated in HMI9 medium containing 10% heat-inactivated foetal bovine serum (FBS) (Sigma-Aldrich), […] L-cysteine and […] beta-mercaptoethanol at 37 °C (CO2 5%). Lmm (MHOM/BZ/84/BEL46) were cultivated in SDM-79 medium (Gibco) supplemented with 15% heat-inactivated FBS (Sigma-Aldrich) and 5 mg/L hemin at 28 °C (CO2 5%). Antiparasitic bioassays were performed as described by Bero et al.. Suramin (SUR) and pentamidine (PEN) were used as positive controls respectively. The hops compounds (xanthohumol, desmethylxanthohumol, humulone, lupulone) concentration that inhibits 50% of the cell viability (IC50) was determined using GraphPad Prism, version 5.01 (GraphPad Software, San Diego, CA, USA).

Assay [4] concerns Candida albicans ATCC 10231. Put plainly: First screening, agar dilution MIC. In kind it is cell-based.
For another assay, the system named is Candida albicans 13203. Description: First screening, agar dilution MIC. In kind it is cell-based.
Assay [5] relates to Leishmania mexicana mexicana (Lmm). Put plainly: Antiparasitic activity, broth microdilution. In kind it is cell-based. The procedure:
as §2

Assay [6] deals with J774 cells (monocyte macrophage). Description: Cytotoxicity / antiproliferative effect. In kind it is cell-based, mouse. The protocol:
(§3) Several human cell lines were used for the cytotoxic bioassays: non-cancer lung fibroblasts (WI-38), hepatocellular carcinoma (Hep-G2), osteosarcoma (MG-63) and the mouse monocyte macrophage J774. Cells were seeded into wells of a 96-well microplate in a Gibco™ Dulbecco’s modified eagles medium (DMEM), except for MG-63 which were cultivated in a minimum essential medium (MEM) (ThermoFisher Scientific, Illkirch-Graffenstaden, France). Both media were enriched with 10% FBS (ThermoFisher Scientific, France) and some antibiotics (mixture penicillin/streptomycin 100 UI/mL, Sigma Aldrich). After one or two days at 37 °C (5% of CO2), wells were emptied by suction. Cells were then treated with hops compounds (xanthohumol, desmethylxanthohumol, humulone, lupulone) in DMSO at 0.2% in the culture medium, to obtain a final volume of 100 µL in wells (negative control: 0.2% DMSO). Camptothecin was used as a positive control. After 48 to 72 h exposure, culture medium was replaced by 10% of Alamar blue or 3-(4,5-dimethylthiazol-2-yl)-2,5-diphenyltetrazolium bromide (MTT) in the medium (ThermoFisher Scientific®, Illkirch, France) and plates were incubated the time necessary to the reaction. Results were measured respectively by fluorescence (excitation 530 nm and emission 590 nm) or by optical density at 550 nm. The IC50 of each product was determined using GraphPad Prism (version 5.01).

The subject of assay [7] is WI-38 cells (non-cancer lung fibroblasts). Description: Cytotoxicity / antiproliferative effect. In kind it is cell-based, human. The procedure:
as §3

The test system of assay [8] is MG-63 cells (osteosarcoma). Put plainly: cells. In kind it is cell-based, human. The settings on record: Homo sapiens, MG-63. The protocol: as §3
Assay [9] has as its system Hep-G2 cells (hepatocellular carcinoma). Description: Cytotoxicity / antiproliferative effect. In kind it is cell-based, human. Conditions: Homo sapiens. The procedure:
as §3

Setting [10] is: Staphylococcus aureus, read-out: MIC.
Setting [11] is: Staphylococcus aureus, value in parentheses, read-out: MIC.
Setting [12] is: Staphylococcus aureus, S. aureus T28.1 (MRSA), read-out: MIC.
Setting [13] is: Staphylococcus aureus, S. aureus T28.1 (MRSA), value in parentheses, read-out: MIC.
Where [14] appears, read: value in parentheses, read-out: IC50 (converted).
[15] abbreviates: value in parentheses, read-out: MIC.

Turning to `Cc1onc(-c2ccccc2)c1C(=O)N[C@@H]1C(=O)N2[C@@H]1SC(C)(C)[C@@H]2C(=O)O` [OXA, oxacillin], the “Susceptibility to OXA” value with S. aureus T26A4 (MSSA) (S. aureus T26A4) is listed as “S (S ≤ 2 µg/mL)”; in the assay on S. aureus T25.10 (MRSA) (S. aureus T25.10) it was “R (R ≥ 4 µg/mL)”; with S. aureus 08143 (MSSA) (S. aureus 08143) it was “S (S ≤ 2 µg/mL)”; with S. aureus T28.1 (MRSA) [2] (S. aureus T28.1) it was “R (R ≥ 4 µg/mL)”. The “MIC for oxacillin in combination” value in the assay on S. aureus T28.1 (MRSA) [1] (in the presence of lupulone) and in the assay on S. aureus T28.1 (MRSA) [1] (in the presence of xanthohumol) was less than 2 µg/mL in each case.
Broadly, the MIC is the lowest concentration found to suppress growth. In the case of `CC(C)=CCC1=C(O)C(O)(CC=C(C)C)C(=O)C(C(=O)C(C)C)=C1O` (stereo in doubt) [Cohumulone, cohumulone], the MIC with S. aureus T26A4 (MSSA) (setting [10]) was found to be 313 µg/mL; with S. aureus T26A4 (MSSA) (setting [11]), 899 µM; in the assay on S. aureus T25.10 (MRSA) (setting [10]) it was 313 µg/mL; with S. aureus T25.10 (MRSA) (setting [11]) it was 899 µM; with S. aureus 08143 (MSSA) (setting [10]), 313 µg/mL; in the assay with S. aureus 08143 (MSSA) (setting [11]), 899 µM. For the same compound, the MIC stood at 156 µg/mL in the assay on S. aureus T28.1 (MRSA) [2] (setting [12]) and 448 µM with S. aureus T28.1 (MRSA) [2] (setting [13]).
The IC50 is the point on the concentration scale where inhibition reaches its midpoint. Turning to `Cc1ccc(C(=O)Nc2ccc(S(=O)(=O)O)c3cc(S(=O)(=O)O)cc(S(=O)(=O)O)c23)cc1NC(=O)c1cccc(NC(=O)Nc2cccc(C(=O)Nc3cc(C(=O)Nc4ccc(S(=O)(=O)O)c5cc(S(=O)(=O)O)cc(S(=O)(=O)O)c45)ccc3C)c2)c1` [SUR, suramin], the IC50 in assay [3] (Trypanosoma brucei, read-out: IC50 (converted)) was 0.05 µg/mL; in [3] (Trypanosoma brucei, value in parentheses, read-out: IC50 (converted)) it was 0.038 µM.
Take `COc1cc(O)c(CC=C(C)C)c2c1C(=O)CC(c1ccc(O)cc1)O2` (stereo not shown) [Isoxanthohumol, isoxanthohumol]: the MIC with S. aureus T28.1 (MRSA) [2] (Staphylococcus aureus, strain MRSA T28.1, read-out: MIC) is 39 µg/mL.
In the case of `C[C@@H]1[C@H](O)[C@@H](C)/C=C/C=C/C=C/C=C/C=C/C=C/C=C/[C@H](O[C@@H]2O[C@H](C)[C@@H](O)[C@H](N)[C@@H]2O)C[C@@H]2O[C@](O)(C[C@@H](O)C[C@@H](O)[C@H](O)CC[C@@H](O)C[C@@H](O)CC(=O)O[C@H]1C)C[C@H](O)[C@H]2C(=O)O` [AMB, Amphotericin B], the “Susceptibility to AMB” value (in [4]; in the assay on Candida albicans 13203) was “S (Amphotericin B (AMB) S ≤ 1)” throughout.
Regarding `OC(Cn1cncn1)(Cn1cncn1)c1ccc(F)cc1F` [FLC, Fluconazole], the entries for the “Susceptibility to FLC” value (in [4]; in the assay with Candida albicans 13203) were “S (Fluconazole (FLC) S ≤ 2)” and “R (R > 4)”, respectively.
On to humulone, for which the IC50 in [5] was 28.8 ± 1.5 µg/mL; in [5] (setting [14]), 77.9 µM; in [3] it was 10.9 ± 0.8 µg/mL; in [3] (setting [14]), 30.1 µM; in [6] (setting [14]) it was 31.7 µM; in [7] (setting [14]), 29 µM. The MIC is 156 µg/mL against S. aureus T26A4 (MSSA); 430.9 µM in the assay on S. aureus T26A4 (MSSA) (setting [15]); 156 µg/mL against S. aureus T25.10 (MRSA); 430.9 µM with S. aureus T25.10 (MRSA) (setting [15]); 156 µg/mL in the assay on S. aureus 08143 (MSSA); 430.9 µM with S. aureus 08143 (MSSA) (setting [15]). Further, the MIC in the assay on S. aureus T28.1 (MRSA) [2] (S. aureus T28.1 (MRSA)) was 78 µg/mL; with S. aureus T28.1 (MRSA) [2] (S. aureus T28.1 (MRSA), value in parentheses, read-out: MIC) it was 215.5 µM. Moreover, the “IC50 ± SD” value in [6] came out at 11.5 ± 0.3 µg/mL; in assay [7], 10.5 ± 2.3 µg/mL.
As for `N=C(N)c1ccc(OCCCCCOc2ccc(C(=N)N)cc2)cc1` [PEN, pentamidine], the IC50 in assay [5] (Leishmania mexicana, read-out: IC50 (converted)) is 0.07 µg/mL; in assay [5] (Leishmania mexicana, value in parentheses, read-out: IC50 (converted)) it was 0.21 µM.
Take `C[C@@H](c1ncncc1F)[C@](O)(Cn1cncn1)c1ccc(F)cc1F` [VRC, Voriconazole]: the “Susceptibility to VRC” value is reported as “S (Voriconazole (VRC) S ≤ 0.12)” in assay [4] and “R (R > 0.12)” with Candida albicans 13203.
Regarding `CO[C@H]1/C=C/O[C@@]2(C)Oc3c(C)c(O)c4c(O)c(c(/C=N/N5CCN(C)CC5)c(O)c4c3C2=O)NC(=O)/C(C)=C\C=C\[C@H](C)[C@H](O)[C@@H](C)[C@@H](O)[C@@H](C)[C@H](OC(C)=O)[C@@H]1C` [rifampicin], the “times more active when combined” value with S. aureus T28.1 (MRSA) [1] (rifampicin combined with xanthohumol) came to 8 times.
Turning to `CC(C)=CCC1=C(O)C(CC=C(C)C)(CC=C(C)C)C(=O)C(C(=O)C(C)C)=C1O` [Colupulone, colupulone], the MIC with S. aureus T26A4 (MSSA) (setting [10]) came out at 39 µg/mL; in the assay with S. aureus T26A4 (MSSA) (setting [11]), 97.5 µM; in the assay on S. aureus T25.10 (MRSA) (setting [10]) it was 78 µg/mL; with S. aureus T25.10 (MRSA) (setting [11]) it was 195 µM; in the assay with S. aureus 08143 (MSSA) (setting [10]), 78 µg/mL; in the assay on S. aureus 08143 (MSSA) (setting [11]), 195 µM. The figures for the MIC in the assay with S. aureus T28.1 (MRSA) [2] (setting [12]) and in the assay with S. aureus T28.1 (MRSA) [2] (setting [13]) were 39 µg/mL and 97.5 µM, respectively.
Turning to `CC[C@@]1(O)C(=O)OCc2c1cc1n(c2=O)Cc2cc3ccccc3nc2-1` [CAMP, camptothecin], the IC50 is 4.4 ± 1.5 µg/mL in [8] (read-out: IC50 ± SD); 12.6 µM in [8] (setting [14]); 0.01 µg/mL in assay [6] (Mus musculus, read-out: IC50 ± SD); 0.03 µM in [6] (Mus musculus, value in parentheses, read-out: IC50 (converted)); 0.4 ± 0.2 µg/mL in assay [9] (HepG2, read-out: IC50 ± SD); 1.15 µM in assay [9] (HepG2, value in parentheses, read-out: IC50 (converted)). For the same compound, the IC50 in assay [7] (Homo sapiens, read-out: IC50 ± SD) is 0.06 µg/mL; in [7] (Homo sapiens, value in parentheses, read-out: IC50 (converted)), 0.17 µM.
